ChEMBL document CHEMBL1201862, “PubChem BioAssay data set” (2004)
Activity calls are given as the source filed them.

Tests used:
[1] = target: Sphingosine 1-phosphate receptor 2 (Homo sapiens, UniProt O95136); experiment: Dose Response Cell Based Assay for Agonists of the S1P2 Receptor of Purchased Analogues. [Related pubchem assays: 729, 843, 854, 736 ]; type: functional
[2] = target: NADPH oxidase 1 (Homo sapiens, UniProt Q9Y5S8); type: functional, cell-based;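 note: Cell-based assay with luminescence read-out, IC50 derived from inhibitor dose-response curves; intracellular ROS from endogenous NOX1 in intact HT29 colon cancer cells; potency of inhibitors that lower the ROS luminescence signal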
[3] = target: T1, Bcl-2-related protein A1 (Mus musculus, UniProt Q07440); experiment: small-molecule antagonists of Bfl-1/BH3 interaction – biochemical, TR-FRET, mouse Bfl-1, confirmation (AID 621);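 note: TR-FRET binding of GST-Bfl-1 to FITC-labelled Bid peptide via terbium antibody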
T1 sequence (Q07440 whole entry): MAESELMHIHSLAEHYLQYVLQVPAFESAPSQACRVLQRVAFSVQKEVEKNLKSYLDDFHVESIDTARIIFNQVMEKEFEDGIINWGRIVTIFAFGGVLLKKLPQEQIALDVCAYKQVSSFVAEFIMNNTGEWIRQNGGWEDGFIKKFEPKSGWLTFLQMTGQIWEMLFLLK

[4] = target: T1, Bcl-2-related protein A1; experiment: displacement of Bid BH3 peptide from Bfl-1 – biochemical, fluorescence polarization, FITC-Bid, mouse, primary screen (AID 432)
[5] = target: Tyrosyl-DNA phosphodiesterase 2 (Homo sapiens, UniProt O95551); experiment: potency against TDP2 phosphodiesterase activity – biochemical, epi absorbance, IC50, dose response (AID 743297)
[6] = target: T2, Serine/threonine-protein phosphatase (Homo sapiens, UniProt Q9BPW0); experiment: inhibition of protein phosphatase 5 activity – biochemical, fluorescence, dose response (AID 2395)
T2 sequence (Q9BPW0 whole entry): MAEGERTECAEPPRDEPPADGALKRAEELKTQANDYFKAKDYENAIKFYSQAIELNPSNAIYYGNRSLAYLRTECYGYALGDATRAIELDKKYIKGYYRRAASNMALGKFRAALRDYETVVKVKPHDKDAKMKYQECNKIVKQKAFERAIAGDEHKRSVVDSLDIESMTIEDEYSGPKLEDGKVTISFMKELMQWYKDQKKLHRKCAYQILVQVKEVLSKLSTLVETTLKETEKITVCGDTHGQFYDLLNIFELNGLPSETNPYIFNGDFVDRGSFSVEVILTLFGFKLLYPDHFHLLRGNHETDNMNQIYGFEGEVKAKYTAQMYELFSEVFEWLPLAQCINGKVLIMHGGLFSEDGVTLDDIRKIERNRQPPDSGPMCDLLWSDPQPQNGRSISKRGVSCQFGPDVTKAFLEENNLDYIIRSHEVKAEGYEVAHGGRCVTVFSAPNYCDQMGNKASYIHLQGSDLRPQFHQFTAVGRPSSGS

[7] = target: T3, SUMO-activating enzyme (Homo sapiens, UniProt Q9UBT2); experiment: blockers of SAE1/SAE2–UBC9 SUMO transfer – biochemical, HTRF, uHTS, primary screen (AID 2006); type: protein-complex assay
[8] = target: T4, Apoptotic protease-activating factor 1 (Homo sapiens, UniProt O14727); type: functional
T4 sequence (O14727 whole entry): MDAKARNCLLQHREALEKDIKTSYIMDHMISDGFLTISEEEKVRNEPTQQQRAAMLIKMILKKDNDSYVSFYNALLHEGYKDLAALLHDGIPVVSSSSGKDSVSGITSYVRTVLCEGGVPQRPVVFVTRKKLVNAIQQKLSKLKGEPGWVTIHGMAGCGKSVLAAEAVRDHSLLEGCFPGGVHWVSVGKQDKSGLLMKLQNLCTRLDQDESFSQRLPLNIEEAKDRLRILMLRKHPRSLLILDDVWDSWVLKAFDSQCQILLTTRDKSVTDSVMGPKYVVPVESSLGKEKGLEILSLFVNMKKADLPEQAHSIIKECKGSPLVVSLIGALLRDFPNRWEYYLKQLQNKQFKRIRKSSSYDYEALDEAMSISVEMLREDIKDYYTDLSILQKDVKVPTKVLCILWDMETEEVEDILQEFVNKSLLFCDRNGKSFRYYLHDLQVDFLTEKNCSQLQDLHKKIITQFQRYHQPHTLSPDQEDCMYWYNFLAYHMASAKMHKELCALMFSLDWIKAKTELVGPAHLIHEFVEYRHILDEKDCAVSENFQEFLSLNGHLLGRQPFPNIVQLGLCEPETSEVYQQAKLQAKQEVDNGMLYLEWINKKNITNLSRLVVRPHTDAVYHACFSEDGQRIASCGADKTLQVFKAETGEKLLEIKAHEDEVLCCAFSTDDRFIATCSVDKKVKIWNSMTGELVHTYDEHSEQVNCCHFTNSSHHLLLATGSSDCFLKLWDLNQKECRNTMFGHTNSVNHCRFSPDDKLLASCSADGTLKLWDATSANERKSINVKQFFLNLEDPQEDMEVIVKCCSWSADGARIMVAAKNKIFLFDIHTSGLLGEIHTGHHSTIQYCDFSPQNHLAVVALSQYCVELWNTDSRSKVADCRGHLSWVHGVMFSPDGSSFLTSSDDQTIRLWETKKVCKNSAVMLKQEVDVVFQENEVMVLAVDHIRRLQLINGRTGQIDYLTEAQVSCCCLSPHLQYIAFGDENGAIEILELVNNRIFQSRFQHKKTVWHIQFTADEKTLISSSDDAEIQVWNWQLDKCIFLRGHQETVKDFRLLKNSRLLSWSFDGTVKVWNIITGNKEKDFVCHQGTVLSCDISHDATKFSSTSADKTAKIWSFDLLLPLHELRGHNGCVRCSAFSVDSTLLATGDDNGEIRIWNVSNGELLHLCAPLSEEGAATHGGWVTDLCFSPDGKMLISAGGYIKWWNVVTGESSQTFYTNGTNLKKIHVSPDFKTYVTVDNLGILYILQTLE

[9] = target: T5, Histone-lysine N-methyltransferase NSD2 (Homo sapiens, UniProt O96028); type: biochemical
T5 sequence (O96028 whole entry): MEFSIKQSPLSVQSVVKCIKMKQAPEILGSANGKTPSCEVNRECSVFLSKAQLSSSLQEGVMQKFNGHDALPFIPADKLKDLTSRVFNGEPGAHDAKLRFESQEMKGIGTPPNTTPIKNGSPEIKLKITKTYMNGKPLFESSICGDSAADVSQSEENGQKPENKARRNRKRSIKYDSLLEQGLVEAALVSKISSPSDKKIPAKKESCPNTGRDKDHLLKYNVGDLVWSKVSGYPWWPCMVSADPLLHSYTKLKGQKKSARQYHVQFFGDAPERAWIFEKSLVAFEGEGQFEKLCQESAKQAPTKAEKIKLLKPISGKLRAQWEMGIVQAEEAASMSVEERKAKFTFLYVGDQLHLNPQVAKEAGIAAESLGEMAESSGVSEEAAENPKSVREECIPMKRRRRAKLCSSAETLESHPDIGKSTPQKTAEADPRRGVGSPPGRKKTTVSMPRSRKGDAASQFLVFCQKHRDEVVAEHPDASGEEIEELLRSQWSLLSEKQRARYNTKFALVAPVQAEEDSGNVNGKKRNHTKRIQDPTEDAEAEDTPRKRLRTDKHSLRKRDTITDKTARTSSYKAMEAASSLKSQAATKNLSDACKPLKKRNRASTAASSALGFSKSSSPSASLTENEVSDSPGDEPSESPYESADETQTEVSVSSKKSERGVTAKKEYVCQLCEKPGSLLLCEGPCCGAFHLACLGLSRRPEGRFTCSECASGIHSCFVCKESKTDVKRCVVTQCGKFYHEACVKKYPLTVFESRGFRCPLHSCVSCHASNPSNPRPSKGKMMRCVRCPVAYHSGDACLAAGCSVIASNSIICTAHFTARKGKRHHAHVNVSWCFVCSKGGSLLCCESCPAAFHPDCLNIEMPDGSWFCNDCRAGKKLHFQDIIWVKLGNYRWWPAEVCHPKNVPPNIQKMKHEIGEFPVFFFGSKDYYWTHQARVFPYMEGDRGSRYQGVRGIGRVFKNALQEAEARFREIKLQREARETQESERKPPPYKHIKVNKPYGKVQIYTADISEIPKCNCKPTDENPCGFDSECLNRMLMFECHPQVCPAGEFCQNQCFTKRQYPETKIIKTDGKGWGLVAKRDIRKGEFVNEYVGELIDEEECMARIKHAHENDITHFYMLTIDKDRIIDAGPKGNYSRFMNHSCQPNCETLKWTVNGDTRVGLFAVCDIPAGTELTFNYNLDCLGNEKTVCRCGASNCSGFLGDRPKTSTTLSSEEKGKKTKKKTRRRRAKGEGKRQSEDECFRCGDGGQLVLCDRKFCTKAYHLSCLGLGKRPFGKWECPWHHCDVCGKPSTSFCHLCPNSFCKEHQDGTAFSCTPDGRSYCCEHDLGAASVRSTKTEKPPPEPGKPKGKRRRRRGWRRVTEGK

[10] = target: T3, SUMO-activating enzyme; experiment: blockers of UBC9-mediated SUMO conjugation – biochemical, AlphaScreen, SUMOylation inhibitor project, confirmation (AID 2018); type: functional
[11] = target: T6, Sentrin-specific protease 8 (Homo sapiens, UniProt Q96LD8); type: functional
T6 sequence (Q96LD8 whole entry): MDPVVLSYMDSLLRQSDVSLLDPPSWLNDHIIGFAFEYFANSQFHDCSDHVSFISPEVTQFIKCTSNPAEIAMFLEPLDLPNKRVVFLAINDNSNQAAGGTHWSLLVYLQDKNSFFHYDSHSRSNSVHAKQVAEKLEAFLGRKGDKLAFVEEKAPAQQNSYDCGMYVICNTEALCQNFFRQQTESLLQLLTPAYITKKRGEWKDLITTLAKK

[12] = target: Serine/threonine-protein phosphatase PP1-alpha catalytic subunit (Homo sapiens, UniProt P62136); experiment: inhibition of protein phosphatase 1 activity – biochemical, fluorescence, dose response (AID 2394)
[13] = target: T6, Sentrin-specific protease 8; type: functional; remark: listed apart in the source
[14] = target: Ras and Rab interactor 1/Tyrosine-protein kinase ABL1 (Homo sapiens, UniProt P00519+Q13671); type: functional;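 note: biochemical TR-FRET dose-response test measuring inhibition of binding between Rin1 and Abl proteins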
[15] = target: Mothers against decapentaplegic homolog 3 (Homo sapiens, UniProt P84022); experiment: inhibitors of SMAD-driven TGF-beta signaling – dose response (AID 715); type: functional
[16] = Luminescence Cell-Based Dose Confirmation to Identify Activators of 5'UTR Stem-Loop Driven Alpha-Synuclein mRNA Translation in H4 Neuroglioblastoma Cells. [Related pubchem assays: 1829 (Project Summary), 1814 (Primary HTS)]; type: functional
[17] = system: H4; experiment: Luminescence Cell-Based Dose Response HTS to Identify Activators of 5'UTR Stem-Loop Driven Prion Protein mRNA Translation in H4 Neuroglioblastoma Cells. [Related pubchem assays: 1829 (Project Summary), 1814 (Primary HTS)]; type: functional; details: Homo sapiens
[18] = Luminescence Cell-Based Dose Response to Identify Activators of 5'UTR Stem-Loop Driven Prion Protein mRNA Translation in H4-C Neuroglioblastoma Cells. [Related pubchem assays: 1829 (Project Summary), 1814 (Primary HTS)]; type: functional
[19] = Luminescence Cell-Based Dose Response HTS to Identify Activators of Luciferase Translation or Activity in H4 […] Cells. [Related pubchem assays: 1829 (Project Summary), 1814 (Primary HTS)]; type: functional
[20] = Luminescence Cell-Based Dose Confirmation HTS to Identify Activators of 5'UTR Stem-Loop Driven Alpha-Synuclein mRNA Translation in H4 Neuroglioblastoma Cells. [Related pubchem assays: 1829 (Project Summary), 1814 (Primary HTS)]; type: functional
[21] = Luminescence Cell-Based Dose Response to Identify Activators of Luciferase Translation or Activity in H4-C Neuroglioblastoma Cells. [Related pubchem assays: 1829 (Project Summary), 1814 (Primary HTS)]; type: functional
[22] = target: Cytochrome P450 2D6 (Homo sapiens, UniProt P10635);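 note: CYP2D6 member of a cytochrome P450 panel assay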
[23] = target: Epstein-Barr nuclear antigen 1 (Epstein-Barr virus (strain B95-8) (HHV-4) (Human herpesvirus 4), UniProt P03211); experiment: inhibition of EBV nuclear antigen 1 DNA binding – biochemical, fluorescence polarization, 1536-well, dose response (AID 2381); design: species or system human gammaherpesvirus 4;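 note: fluorescence polarization of a Cy5 DNA probe bound by EBNA-1 protein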
[24] = target: Lytic switch protein BZLF1 (Epstein-Barr virus (strain B95-8) (HHV-4) (Human herpesvirus 4), UniProt P03206); experiment: inhibition of BZLF1 ZTA DNA binding – biochemical, fluorescence polarization, Epstein-Barr virus, 1536-well, counter-screen for EBNA-1 inhibitor project, dose response (AID 2377); design: species or system human gammaherpesvirus 4;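 note: fluorescence polarization of Cy5-labelled ZRE DNA probe bound by purified Zta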
[25] = target: Cytochrome P450 2C9 (Homo sapiens, UniProt P11712)
Cytochrome P450 2C9, sequence (P11712 whole entry): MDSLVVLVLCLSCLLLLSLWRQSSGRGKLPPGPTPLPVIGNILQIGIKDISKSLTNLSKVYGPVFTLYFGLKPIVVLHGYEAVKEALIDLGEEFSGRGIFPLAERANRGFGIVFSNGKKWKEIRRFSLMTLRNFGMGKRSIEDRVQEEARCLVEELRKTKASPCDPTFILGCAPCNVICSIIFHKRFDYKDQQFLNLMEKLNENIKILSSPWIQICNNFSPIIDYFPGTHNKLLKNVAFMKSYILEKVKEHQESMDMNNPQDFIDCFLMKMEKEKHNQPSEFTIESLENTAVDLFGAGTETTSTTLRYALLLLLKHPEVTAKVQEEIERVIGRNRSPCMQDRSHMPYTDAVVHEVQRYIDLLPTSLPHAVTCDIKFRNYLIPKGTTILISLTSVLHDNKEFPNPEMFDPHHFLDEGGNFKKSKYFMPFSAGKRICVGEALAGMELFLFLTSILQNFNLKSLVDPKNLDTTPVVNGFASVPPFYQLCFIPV

T3 sequence (Q9UBE0 whole entry): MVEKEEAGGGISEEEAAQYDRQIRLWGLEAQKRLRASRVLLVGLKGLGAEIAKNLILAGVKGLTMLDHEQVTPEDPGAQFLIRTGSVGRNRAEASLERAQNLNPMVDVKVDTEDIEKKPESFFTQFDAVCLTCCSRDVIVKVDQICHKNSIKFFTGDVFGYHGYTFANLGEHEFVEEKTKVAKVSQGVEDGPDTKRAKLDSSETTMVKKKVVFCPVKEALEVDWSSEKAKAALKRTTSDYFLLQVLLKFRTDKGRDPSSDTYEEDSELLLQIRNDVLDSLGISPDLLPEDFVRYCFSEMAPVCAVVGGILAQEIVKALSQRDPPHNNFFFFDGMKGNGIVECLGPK
T3 sequence (Q9UBT2 whole entry): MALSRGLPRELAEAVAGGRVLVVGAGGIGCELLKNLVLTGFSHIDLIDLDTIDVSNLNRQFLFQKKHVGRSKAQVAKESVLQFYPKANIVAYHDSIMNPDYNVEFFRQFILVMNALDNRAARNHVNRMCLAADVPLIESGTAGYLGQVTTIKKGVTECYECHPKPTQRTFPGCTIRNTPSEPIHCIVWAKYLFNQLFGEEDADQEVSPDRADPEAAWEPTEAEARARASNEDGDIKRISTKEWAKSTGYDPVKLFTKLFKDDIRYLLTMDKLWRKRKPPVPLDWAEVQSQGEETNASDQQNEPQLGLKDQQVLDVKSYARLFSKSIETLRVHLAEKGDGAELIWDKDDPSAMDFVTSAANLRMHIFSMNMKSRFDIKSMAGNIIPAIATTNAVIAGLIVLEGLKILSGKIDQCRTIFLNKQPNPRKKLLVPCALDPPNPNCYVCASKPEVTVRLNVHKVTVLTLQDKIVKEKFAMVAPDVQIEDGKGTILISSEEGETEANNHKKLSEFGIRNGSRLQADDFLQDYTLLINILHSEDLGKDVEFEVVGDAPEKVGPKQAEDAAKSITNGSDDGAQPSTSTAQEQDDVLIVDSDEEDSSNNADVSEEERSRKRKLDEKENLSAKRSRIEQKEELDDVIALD
Mothers against decapentaplegic homolog 3, sequence (P84022 whole entry): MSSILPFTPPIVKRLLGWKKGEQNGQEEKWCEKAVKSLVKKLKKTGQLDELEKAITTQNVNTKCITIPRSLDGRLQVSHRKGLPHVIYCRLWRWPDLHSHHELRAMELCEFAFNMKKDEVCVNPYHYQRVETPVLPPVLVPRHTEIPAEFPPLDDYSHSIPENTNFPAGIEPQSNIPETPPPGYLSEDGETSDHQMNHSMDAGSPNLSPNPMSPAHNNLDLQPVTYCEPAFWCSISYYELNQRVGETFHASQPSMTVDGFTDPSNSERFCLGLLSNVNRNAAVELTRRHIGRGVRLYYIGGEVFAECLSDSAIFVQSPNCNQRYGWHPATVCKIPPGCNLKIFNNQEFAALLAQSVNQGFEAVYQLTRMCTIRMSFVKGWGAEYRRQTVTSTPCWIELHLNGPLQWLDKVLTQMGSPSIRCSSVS
Lytic switch protein BZLF1, sequence (P03206 whole entry): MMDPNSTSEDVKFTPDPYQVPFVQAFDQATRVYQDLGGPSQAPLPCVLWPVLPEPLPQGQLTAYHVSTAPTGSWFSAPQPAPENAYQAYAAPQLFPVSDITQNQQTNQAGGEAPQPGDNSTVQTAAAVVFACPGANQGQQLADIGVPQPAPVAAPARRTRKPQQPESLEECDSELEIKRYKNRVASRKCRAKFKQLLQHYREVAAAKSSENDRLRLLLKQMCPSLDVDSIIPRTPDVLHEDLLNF
NADPH oxidase 1, sequence (Q9Y5S8 whole entry): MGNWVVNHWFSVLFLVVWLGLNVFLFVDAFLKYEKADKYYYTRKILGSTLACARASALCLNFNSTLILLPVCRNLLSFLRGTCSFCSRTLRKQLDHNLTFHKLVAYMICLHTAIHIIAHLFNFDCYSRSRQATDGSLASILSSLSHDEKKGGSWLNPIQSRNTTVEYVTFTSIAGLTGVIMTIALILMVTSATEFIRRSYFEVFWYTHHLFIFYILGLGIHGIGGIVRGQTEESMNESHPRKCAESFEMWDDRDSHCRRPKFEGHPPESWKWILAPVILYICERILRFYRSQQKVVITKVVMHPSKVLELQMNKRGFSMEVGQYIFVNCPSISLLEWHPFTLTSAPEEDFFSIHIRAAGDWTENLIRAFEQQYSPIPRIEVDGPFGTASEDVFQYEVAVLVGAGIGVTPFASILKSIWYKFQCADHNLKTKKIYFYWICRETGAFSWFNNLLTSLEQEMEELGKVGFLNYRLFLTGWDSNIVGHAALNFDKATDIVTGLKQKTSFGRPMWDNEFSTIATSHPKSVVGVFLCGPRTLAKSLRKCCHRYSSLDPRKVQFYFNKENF
Epstein-Barr nuclear antigen 1, sequence (P03211 whole entry): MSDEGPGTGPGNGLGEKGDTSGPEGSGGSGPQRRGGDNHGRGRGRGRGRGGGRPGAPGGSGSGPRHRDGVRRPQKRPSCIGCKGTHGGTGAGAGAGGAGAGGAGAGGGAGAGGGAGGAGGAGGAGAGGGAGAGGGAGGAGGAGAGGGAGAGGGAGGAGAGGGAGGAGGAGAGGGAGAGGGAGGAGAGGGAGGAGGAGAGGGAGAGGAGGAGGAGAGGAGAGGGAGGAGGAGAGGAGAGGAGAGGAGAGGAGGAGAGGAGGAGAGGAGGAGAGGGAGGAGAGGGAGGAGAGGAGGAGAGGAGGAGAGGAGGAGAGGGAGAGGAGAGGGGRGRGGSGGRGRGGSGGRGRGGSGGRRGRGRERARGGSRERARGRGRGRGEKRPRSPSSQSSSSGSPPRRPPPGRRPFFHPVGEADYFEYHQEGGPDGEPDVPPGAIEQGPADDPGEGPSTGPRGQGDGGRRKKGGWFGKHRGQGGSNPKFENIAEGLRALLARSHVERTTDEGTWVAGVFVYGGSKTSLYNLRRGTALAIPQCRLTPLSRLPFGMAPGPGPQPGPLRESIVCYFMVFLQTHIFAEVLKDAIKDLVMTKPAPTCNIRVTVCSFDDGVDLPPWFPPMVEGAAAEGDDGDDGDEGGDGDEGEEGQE
Sphingosine 1-phosphate receptor 2, sequence (O95136 whole entry): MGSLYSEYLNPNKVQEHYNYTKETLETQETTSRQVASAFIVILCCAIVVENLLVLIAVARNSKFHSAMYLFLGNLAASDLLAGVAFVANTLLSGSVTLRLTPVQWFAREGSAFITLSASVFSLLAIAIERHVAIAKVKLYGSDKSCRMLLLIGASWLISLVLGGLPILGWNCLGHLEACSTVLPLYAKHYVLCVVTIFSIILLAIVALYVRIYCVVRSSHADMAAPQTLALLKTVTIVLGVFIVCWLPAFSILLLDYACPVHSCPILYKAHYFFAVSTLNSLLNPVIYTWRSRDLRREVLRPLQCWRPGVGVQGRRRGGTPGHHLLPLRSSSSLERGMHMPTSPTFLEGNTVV
Serine/threonine-protein phosphatase PP1-alpha catalytic subunit, sequence (P62136 whole entry): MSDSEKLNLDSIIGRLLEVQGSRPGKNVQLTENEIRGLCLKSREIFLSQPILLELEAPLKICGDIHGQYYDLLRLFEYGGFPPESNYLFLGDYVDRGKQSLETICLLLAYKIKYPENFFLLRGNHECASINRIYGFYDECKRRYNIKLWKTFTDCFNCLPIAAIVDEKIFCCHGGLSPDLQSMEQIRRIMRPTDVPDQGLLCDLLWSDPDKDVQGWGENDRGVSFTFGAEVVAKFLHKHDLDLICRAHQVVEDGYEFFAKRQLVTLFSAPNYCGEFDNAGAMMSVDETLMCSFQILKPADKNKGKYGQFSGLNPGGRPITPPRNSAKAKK
Cytochrome P450 2D6, sequence (P10635 whole entry): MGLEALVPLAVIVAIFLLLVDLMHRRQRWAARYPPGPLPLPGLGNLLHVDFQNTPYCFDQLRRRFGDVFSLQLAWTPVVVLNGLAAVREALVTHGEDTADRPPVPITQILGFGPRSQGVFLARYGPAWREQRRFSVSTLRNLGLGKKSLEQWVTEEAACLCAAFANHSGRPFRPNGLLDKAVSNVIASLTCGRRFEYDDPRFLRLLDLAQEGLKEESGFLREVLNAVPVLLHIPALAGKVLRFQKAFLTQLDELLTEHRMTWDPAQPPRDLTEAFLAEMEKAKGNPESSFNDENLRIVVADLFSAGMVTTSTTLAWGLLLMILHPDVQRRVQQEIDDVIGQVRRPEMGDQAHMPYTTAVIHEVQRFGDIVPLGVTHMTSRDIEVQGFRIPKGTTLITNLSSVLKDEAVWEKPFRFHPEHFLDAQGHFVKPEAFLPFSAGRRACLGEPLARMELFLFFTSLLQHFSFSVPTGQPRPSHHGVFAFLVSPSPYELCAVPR
Tyrosyl-DNA phosphodiesterase 2, sequence (O95551 whole entry): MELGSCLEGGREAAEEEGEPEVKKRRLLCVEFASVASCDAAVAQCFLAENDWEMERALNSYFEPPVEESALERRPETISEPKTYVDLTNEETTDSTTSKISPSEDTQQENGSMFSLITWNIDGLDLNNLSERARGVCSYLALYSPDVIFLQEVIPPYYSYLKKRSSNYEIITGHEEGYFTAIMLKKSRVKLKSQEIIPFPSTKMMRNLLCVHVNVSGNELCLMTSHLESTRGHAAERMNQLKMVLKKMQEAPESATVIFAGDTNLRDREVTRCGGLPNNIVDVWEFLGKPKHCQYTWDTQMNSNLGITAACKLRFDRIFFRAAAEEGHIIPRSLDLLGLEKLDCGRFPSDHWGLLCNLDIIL

CC(=O)Nc1ccc(OCC(=O)c2cc(C)n(Cc3ccccc3)c2C)cc1
EC50 [1]: > 30 µM (not active)

O=C(Cc1ccc([N+](=O)[O-])cc1)Nc1ccc(Oc2ccccc2)cc1
IC50 [2]: > 17 µM (not active)

CCCN1CC=C2C(C#N)=C(N)C(C#N)(C#N)C(c3cccc(OC)c3OC)C2C1 (stereo not given)
IC50 [3]: > 100 µM (not active)
IC50 [4]: > 100 µM (not active)

CC(=O)C1=C(C)OC2(O)c3ccccc3C(=O)C12O (stereo not given)
IC50 [5]: 7.52 µM (active)
IC50 [6]: > 2.48 µM (active)
IC50 [7]: 16.6 µM (active)
IC50 [8]: 8.19 µM (active)
AC50 [9]: 4.82 µM (active)
IC50 [10]: 3.09 µM (active)
IC50 [11]: 0.754 µM (active)
IC50 [12]: > 67 µM (not active)
IC50 [13]: 0.455 µM (active)
IC50 [14]: > 73.4 µM (inactive)

Cc1ccc(CCN2CC(C(=O)NCCCN3CCCCCC3)CC2=O)cc1 (stereo not given)
IC50 [15]: 11.1 µM (active)

O=c1c2ccccc2ncn1/N=C/c1ccccc1
EC50 [16]: 0.53 µM (active)
EC50 [17]: 0.525 µM (active)
EC50 [18]: 2.06 µM (active)
EC50 [19]: < 0.1 µM (active)
EC50 [20]: < 0.1 µM (active)
EC50 [21]: 1.16 µM (active)

COc1ccc(/C=C/C(=O)Oc2cccc(/C=N/NC(=O)COc3c(C)cccc3C)c2)cc1
AC50 [22]: inconclusive
IC50 [23]: 6.28 µM (active)
IC50 [24]: > 111 µM (not active)
AC50 [25]: 3.55 µM (inconclusive)
